Experimental data as given in patent publication US5741687A (Toyo Boseki Kaubshiki Kaisha, priority 1992, dated 1998).

test system: sorbitol oxidase; assay: Sorbitol oxidase activity determined by H2O2 produced, with various monosaccharides and derivatives as substrate; assay type: biochemical, Xanthomonas maltophilia TE3539; set-up: concentration or dose not given beside the values; conditions: substrate specificity; enzyme activity with respect to D-sorbitol set at 100
Procedure: First, the following reaction mixture is prepared.
The enzyme activity was determined in the case where various monosaccharides and derivatives thereof were used as a substrate. The value of enzyme activity with respect to D-sorbitol was set at 100.

Relative activity (%)	SMILES
89.90	OC[C@@H](O)[C@H](O)[C@@H](O)CO [D-xylitol]
0.42	O=C[C@H](O)[C@@H](O)[C@@H](O)[C@H](O)CO [D-galactose]
86.60	OC[C@@H](O)[C@@H](O)[C@H](O)[C@H](O)CO [D-mannitol]
2.88	O=C(CO)[C@@H](O)[C@H](O)[C@H](O)CO [D-fructose]
100.00	OC[C@@H](O)[C@@H](O)[C@H](O)[C@@H](O)CO [D-sorbitol]
0.54	O=C[C@H](O)[C@@H](O)[C@H](O)[C@H](O)CO [D-glucose]
23.20	OC[C@@H](O)C(O)[C@H](O)CO [D-arabitol]
1.01	O=C[C@@H](O)[C@@H](O)[C@H](O)[C@H](O)CO [D-mannose]

Second part, the compound before the results:

SMILES	Relative activity (%)
O=C(CO)[C@@H](O)[C@H](O)[C@@H](O)CO [L-sorbose]	10.60
Cl.N[C@H]1C(O)O[C@H](CO)[C@@H](O)[C@@H]1O (stereo partly drawn) [D-glucosamine hydrochloride]	0.00
O[C@H]1[C@H](O)[C@@H](O)[C@H](O)[C@@H](O)[C@H]1O [Inositol]	0.40
OC[C@H]1O[C@H](O[C@H]2[C@H](O)[C@@H](O)C(O)O[C@@H]2CO)[C@H](O)[C@@H](O)[C@@H]1O (mixture of isomers) [Maltose]	0.00
OCC(O)CO [Glycerol]	3.50

test system: sorbitol oxidase; assay: as above; assay type: biochemical, Xanthomonas maltophilia TE3539; conditions: with respect to sorbitol

SMILES	Km [µM]
OC[C@@H](O)[C@@H](O)[C@H](O)[C@@H](O)CO [D-sorbitol]	600
